According to US20230348447A1, “OXAZOLIDINONE COMPOUNDS, LIPOSOME COMPOSITIONS COMPRISING OXAZOLIDINONE COMPOUNDS AND METHOD OF USE THEREOF” (priority 2020, published 2023):
In brackets after ≈: the same amount, converted by molar mass. Where two headings read alike, the source gives them in different places.

What was measured:
[1] = male, Sprague-Dawley, rat, in vivo, 50 mg/kg, 8 weeks
Protocol: The control group was injected once weekly for 8 weeks with an equal volume of HEPES buffered saline (HBS, pH 7). Before the endpoint of the study animals were humanely euthanized by exsanguination from the abdominal aorta following isoflurane anesthesia. Blood and tissue samples were collected for evaluation of clinical pathology parameters. Representative samples of tissues were collected and preserved in 10% neutral buffered, embedded in paraffin, sectioned, mounted on glass slides, stained with hematoxylin and eosin, and evaluated for histopathology by a board-certified veterinary pathologist.
The following parameters and end points were also evaluated: mortality and moribundity check, clinical observations, body weights, food consumption, nerve conduction velocity (NCV) and muscle action potential (MAP), functional observation battery (FOB).

M.tb Erdman = test: Broth microdilution MIC with Alamar blue endpoint (MABA) / OD600; format: cell-based, Mycobacterium tuberculosis; conditions: Mycobacterium tuberculosis
[2] = male, Sprague-Dawley, rat, in vivo, po, 50 mg/kg
[3] = Liposome loading / encapsulation efficiency (General protocol); conditions: HSPC, 5 mol% PEG-lipid, 40-65 mol% Chol; DL0 250 (AKG-28) or 500 (AKG-38)
in vivo = conditions: male, Sprague-Dawley, rat
M. Tuberculosis Erdman [4] = test: Efficacy of monotherapy in chronic Balb/c model of tuberculosis (lung and spleen CFU); format: in vivo, Mycobacterium tuberculosis (in Balb/c mice)
M.tb H37Rv = test: Broth microdilution MIC with Alamar blue endpoint (MABA) / OD600; format: cell-based, Mycobacterium tuberculosis; conditions: Mycobacterium tuberculosis, H37RV
M. Tuberculosis Erdman [5] = conditions: eight weeks, Balb/c and C3HeB/FeJ mice; cited from earlier work
[6] = Balb/c mice, 50 mg/kg, q1x5, oral gavage
[7] = Balb/c mice, 100 mg/kg, q1x5, oral gavage

CC(=O)NC[C@H]1CN(c2ccc(N3CCOCC3)c(F)c2)C(=O)O1 [Linezolid]
Kidney: Vacuolation, mesangial cell, glomerular, Minimal (animals) [1]: 0
Kidney: Vacuolation, mesangial cell, glomerular, number of animals with the finding [1]: (0)
Liver: Degeneration, hepatocellular, centrilobular, Mild (animals) [1]: 0
Liver: Degeneration, hepatocellular, centrilobular, Minimal (animals) [1]: 0
Liver: Degeneration, hepatocellular, centrilobular, number of animals with the finding [1]: (0)
Liver: Single cell necrosis, centrilobular, Minimal (animals) [1]: 2
Liver: Single cell necrosis, centrilobular, number of animals with the finding [1]: (2)
Spleen: Accumulation, basophilic material, Mild (animals) [1]: 0
Spleen: Accumulation, basophilic material, Minimal (animals) [1]: 0
Spleen: Accumulation, basophilic material, number of animals with the finding [1]: (0)
Spleen: Vacuolation, macrophages, Mild (animals) [1]: 0
Spleen: Vacuolation, macrophages, Minimal (animals) [1]: 0
Spleen: Vacuolation, macrophages, Moderate (animals) [1]: 0
Spleen: Vacuolation, macrophages, number of animals with the finding [1]: (0)
MIC (M.tb Erdman; ERDMAN, read-out: Mycobacterium tuberculosis MIC, Erdman): 1 µg/mL (≈ 2.96 µM)
MIC (M.tb Erdman; M. tuberculosis Erdman / H37Rv, strains not separated, read-out: MIC): 2 µg/mL (≈ 5.93 µM)
AUC0-inf [2]: 373.53 µg·h/mL
Clearance [2]: 133.86 mL/h/kg
T ½ [2]: 11.86 h
Vd [2]: 2,291.26 mL/kg
EE [3]: less than 5%
Vd (in vivo): 2.29 L/kg
AUC (in vivo; po, 50 mg/kg): 282 µg·h/mL
AUC0-inf (in vivo; po, 50 mg/kg): 374 µg·h/mL
AUC(0-t) (in vivo; po, 50 mg/kg): 282 µg·h/mL
Cmax (in vivo; po, 50 mg/kg): 26700 ng/mL
Tmax (in vivo; po, 50 mg/kg): 1 h
half-life (in vivo; po, 50 mg/kg): 712 min
Lung Log CFU, 4 week (M. Tuberculosis Erdman [4]; [6]): 4.61 ± 0.31 Log CFU
Spleen Log CFU, 4 week (M. Tuberculosis Erdman [4]; [6]): 4.32 ± 0.28 Log CFU
Lung Log CFU, 2 week (M. Tuberculosis Erdman [4]; [7]): 5.58 ± 0.10 Log CFU
Lung Log CFU, 4 week (M. Tuberculosis Erdman [4]; [7]): 4.17 ± 0.21 Log CFU
Lung Log CFU, 8 week (M. Tuberculosis Erdman [4]; [7]): 2.45 ± 0.37 Log CFU
Spleen Log CFU, 2 week (M. Tuberculosis Erdman [4]; [7]): 4.53 ± 0.25 Log CFU
Spleen Log CFU, 4 week (M. Tuberculosis Erdman [4]; [7]): 3.90 ± 0.28 Log CFU
log10 CFU in lungs (M. Tuberculosis Erdman [4]; eight weeks, linezolid 100 mg/kg, detection limit 1.13): 2.45 log10 CFU
Log10 CFU reduction, lungs (M. Tuberculosis Erdman [4]; two weeks, Ls-AKG28 50 mg/kg twice weekly or 100 mg/kg once weekly, linezolid 100 mg/kg (q1x5)): less than 0.15 Log10 CFU
MIC (M.tb H37Rv; as determined in Example 2, read-out: MIC (H37Rv)): 1 µg/mL (≈ 2.96 µM)
MIC (M.tb H37Rv; read-out: Mycobacterium tuberculosis MIC, H37Rv): 1 µg/mL (≈ 2.96 µM)
log10 CFU counts, monotherapy (Lanoix et al. 2015) (M. Tuberculosis Erdman [5]): 4-6 log10 CFU
